Data published in the NIST ThermoML archive (doi:10.1021/acs.jced.8b00008).
Numbers after ± are expanded uncertainties.

settings: 291.1 K, Pendant drop shape

Row | SMILES | surface tension liquid-gas
1 | CC1CCCCC1 [methylcyclohexane] | 23.7 ± 0.5 mN/m

same assay, conditions: 293.15 K; 102 kPa; Liquid; Concentric cylinders viscometry

Row | SMILES | viscosity
2 | CCCCCCCCCCCC [dodecane] | 1.49 ± 0.01 mPa·s
3 | CCC1CCCCC1 [ethylcyclohexane] | 0.858 ± 0.012 mPa·s
4 | CCCCCCCCCCCCCCCC [hexadecane] | 3.47 ± 0.02 mPa·s
5 | CC1CCCCC1 [methylcyclohexane] | 0.74 ± 0.011 mPa·s

same assay, conditions: 293.15 K; 102 kPa; Liquid; Single path-length method

Row | SMILES | speed of sound
6 | CCCCCCCCCCCC [dodecane] | 1297.7 ± 0.7 m/s
7 | CCC1CCCCC1 [ethylcyclohexane] | 1292.9 ± 0.6 m/s
8 | CCCCCCCCCCCCCCCC [hexadecane] | 1357.4 ± 0.6 m/s
9 | CC1CCCCC1 [methylcyclohexane] | 1236.5 ± 0.6 m/s

same assay, conditions: 293.15 K; 102 kPa; Liquid; Vibrating tube method

Row | SMILES | mass density
10 | CCCCCCCCCCCC [dodecane] | 748.73 ± 0.7 kg/m3
11 | CCC1CCCCC1 [ethylcyclohexane] | 787.98 ± 0.2 kg/m3
12 | CCCCCCCCCCCCCCCC [hexadecane] | 773.37 ± 0.32 kg/m3
13 | CC1CCCCC1 [methylcyclohexane] | 769.3 ± 0.2 kg/m3

same assay, conditions: 294.6 K, Pendant drop shape

Row | SMILES | surface tension liquid-gas
14 | CCCCCCCCCCCC [dodecane] | 25 ± 0.5 mN/m

same assay, conditions: 295.6 K, Pendant drop shape

Row | SMILES | surface tension liquid-gas
15 | CCC1CCCCC1 [ethylcyclohexane] | 25.3 ± 0.5 mN/m

same assay, conditions: 296.1 K, Pendant drop shape

Row | SMILES | surface tension liquid-gas
16 | CCCCCCCCCCCCCCCC [hexadecane] | 26.9 ± 0.7 mN/m

same assay, conditions: 298.15 K; 102 kPa; Liquid; Concentric cylinders viscometry

Row | SMILES | viscosity
17 | CCCCCCCCCCCC [dodecane] | 1.36 ± 0.01 mPa·s
18 | CCCCCCCCCCCCCCCC [hexadecane] | 3.06 ± 0.02 mPa·s
19 | CC1CCCCC1 [methylcyclohexane] | 0.685 ± 0.011 mPa·s

same assay, conditions: 298.15 K; 102 kPa; Liquid; Single path-length method

Row | SMILES | speed of sound
20 | CCCCCCCCCCCCCCCC [hexadecane] | 1338.6 ± 0.6 m/s
21 | CC1CCCCC1 [methylcyclohexane] | 1214.5 ± 0.6 m/s

same assay, conditions: 298.15 K; 102 kPa; Liquid; Vibrating tube method

Row | SMILES | mass density
22 | CCCCCCCCCCCC [dodecane] | 745.11 ± 0.7 kg/m3
23 | CCCCCCCCCCCCCCCC [hexadecane] | 769.89 ± 0.32 kg/m3
24 | CC1CCCCC1 [methylcyclohexane] | 764.99 ± 0.21 kg/m3

same assay, conditions: 303.15 K; 102 kPa; Liquid; Concentric cylinders viscometry

Row | SMILES | viscosity
25 | CCCCCCCCCCCC [dodecane] | 1.26 ± 0.01 mPa·s
26 | CCC1CCCCC1 [ethylcyclohexane] | 0.725 ± 0.011 mPa·s
27 | CCCCCCCCCCCCCCCC [hexadecane] | 2.76 ± 0.02 mPa·s
28 | CC1CCCCC1 [methylcyclohexane] | 0.633 ± 0.011 mPa·s

same assay, conditions: 303.15 K; 102 kPa; Liquid; Single path-length method

Row | SMILES | speed of sound
29 | CCCCCCCCCCCC [dodecane] | 1259 ± 0.7 m/s
30 | CCC1CCCCC1 [ethylcyclohexane] | 1249.9 ± 0.6 m/s
31 | CCCCCCCCCCCCCCCC [hexadecane] | 1319.7 ± 0.6 m/s
32 | CC1CCCCC1 [methylcyclohexane] | 1192.3 ± 0.6 m/s

same assay, conditions: 303.15 K; 102 kPa; Liquid; Vibrating tube method

Row | SMILES | mass density
33 | CCCCCCCCCCCC [dodecane] | 741.77 ± 0.7 kg/m3
34 | CCC1CCCCC1 [ethylcyclohexane] | 779.91 ± 0.2 kg/m3
35 | CCCCCCCCCCCCCCCC [hexadecane] | 766.43 ± 0.32 kg/m3
36 | CC1CCCCC1 [methylcyclohexane] | 760.64 ± 0.21 kg/m3

same assay, conditions: 313.15 K; 102 kPa; Liquid; Concentric cylinders viscometry

Row | SMILES | viscosity
37 | CCCCCCCCCCCC [dodecane] | 1.06 ± 0.01 mPa·s
38 | CCC1CCCCC1 [ethylcyclohexane] | 0.649 ± 0.011 mPa·s
39 | CCCCCCCCCCCCCCCC [hexadecane] | 2.23 ± 0.02 mPa·s
40 | CC1CCCCC1 [methylcyclohexane] | 0.572 ± 0.011 mPa·s

same assay, conditions: 313.15 K; 102 kPa; Liquid; Single path-length method

Row | SMILES | speed of sound
41 | CCCCCCCCCCCC [dodecane] | 1221.1 ± 0.7 m/s
42 | CCC1CCCCC1 [ethylcyclohexane] | 1208 ± 0.6 m/s
43 | CCCCCCCCCCCCCCCC [hexadecane] | 1282.9 ± 0.6 m/s
44 | CC1CCCCC1 [methylcyclohexane] | 1149.2 ± 0.6 m/s

same assay, conditions: 313.15 K; 102 kPa; Liquid; Vibrating tube method

Row | SMILES | mass density
45 | CCCCCCCCCCCC [dodecane] | 734.87 ± 0.7 kg/m3
46 | CCC1CCCCC1 [ethylcyclohexane] | 771.79 ± 0.2 kg/m3
47 | CCCCCCCCCCCCCCCC [hexadecane] | 759.51 ± 0.32 kg/m3
48 | CC1CCCCC1 [methylcyclohexane] | 751.92 ± 0.21 kg/m3

same assay, conditions: 323.15 K; 102 kPa; Liquid; Concentric cylinders viscometry

Row | SMILES | viscosity
49 | CCCCCCCCCCCC [dodecane] | 0.925 ± 0.012 mPa·s
50 | CCC1CCCCC1 [ethylcyclohexane] | 0.572 ± 0.011 mPa·s
51 | CCCCCCCCCCCCCCCC [hexadecane] | 1.86 ± 0.01 mPa·s
52 | CC1CCCCC1 [methylcyclohexane] | 0.489 ± 0.011 mPa·s

same assay, conditions: 323.15 K; 102 kPa; Liquid; Single path-length method

Row | SMILES | speed of sound
53 | CCCCCCCCCCCC [dodecane] | 1183.9 ± 0.7 m/s
54 | CCC1CCCCC1 [ethylcyclohexane] | 1166.9 ± 0.6 m/s
55 | CCCCCCCCCCCCCCCC [hexadecane] | 1247.1 ± 0.6 m/s
56 | CC1CCCCC1 [methylcyclohexane] | 1106.9 ± 0.6 m/s

same assay, conditions: 323.15 K; 102 kPa; Liquid; Vibrating tube method

Row | SMILES | mass density
57 | CCCCCCCCCCCC [dodecane] | 726.88 ± 0.7 kg/m3
58 | CCC1CCCCC1 [ethylcyclohexane] | 763.6 ± 0.21 kg/m3
59 | CCCCCCCCCCCCCCCC [hexadecane] | 752.6 ± 0.32 kg/m3
60 | CC1CCCCC1 [methylcyclohexane] | 743.13 ± 0.21 kg/m3

same assay, conditions: 333.15 K; 102 kPa; Liquid; Concentric cylinders viscometry

Row | SMILES | viscosity
61 | CCCCCCCCCCCC [dodecane] | 0.795 ± 0.012 mPa·s
62 | CCC1CCCCC1 [ethylcyclohexane] | 0.504 ± 0.011 mPa·s
63 | CCCCCCCCCCCCCCCC [hexadecane] | 1.56 ± 0.01 mPa·s
64 | CC1CCCCC1 [methylcyclohexane] | 0.44 ± 0.011 mPa·s

same assay, conditions: 333.15 K; 102 kPa; Liquid; Single path-length method

Row | SMILES | speed of sound
65 | CCCCCCCCCCCC [dodecane] | 1147.6 ± 0.7 m/s
66 | CCC1CCCCC1 [ethylcyclohexane] | 1126.9 ± 0.6 m/s
67 | CCCCCCCCCCCCCCCC [hexadecane] | 1212.2 ± 0.6 m/s
68 | CC1CCCCC1 [methylcyclohexane] | 1065.7 ± 0.6 m/s

same assay, conditions: 333.15 K; 102 kPa; Liquid; Vibrating tube method

Row | SMILES | mass density
69 | CCCCCCCCCCCC [dodecane] | 719.53 ± 0.7 kg/m3
70 | CCC1CCCCC1 [ethylcyclohexane] | 755.36 ± 0.21 kg/m3
71 | CCCCCCCCCCCCCCCC [hexadecane] | 745.69 ± 0.32 kg/m3
72 | CC1CCCCC1 [methylcyclohexane] | 734.25 ± 0.21 kg/m3
